Data on eight compounds can be found in patent US10882859B2, “Kinase inhibitors” (Topivert Pharma Limited, priority 2015, dated 2021).

In brackets after ≈: the same amount, converted by molar mass. Read-outs that look alike come from different tables or passages of the source.

In data set [1] the test system is CD3/IL2 stimulated PBMC cells. Nature of the data set: IFNγ release from CD3/IL2 stimulated PBMC cells. Format: cell-based. As to conditions: Homo sapiens, CD3/IL2 stimulation, 48 h, ELISA. As for the experimental part:
PBMCs from healthy subjects are separated from whole blood using a density gradient (Lymphoprep, Axis-Shield Healthcare). Cells are added to a 96 well plate, and compound at the desired concentration added 2 hours prior to stimulation with a mixture of monoclonal antibody to CD3 (1 μg/ml, eBioscience) and human recombinant IL2 (10 ng/ml, Peprotech). After 48 hours incubation under normal tissue culture conditions, supernatants are collected and IFNγ release determined by Sandwich ELISA (Duo-set, R&D System). The IC50 is determined from the dose response curve.
Background: An ELISA detects its analyte on a solid surface through an enzyme-linked reagent.

In data set [2] the test system is Jurkat cells. Nature of the data set: Cell cytotoxicity assay (propidium iodide, flow cytometry). It is filed as cell-based, human. As to conditions: 24 h. On the procedure:
1×10^5 Jurkat cells (immortalised human T lymphocytes) are added to the appropriate number of wells of a 96 well plate in 100 μL of media (RPMI supplemented with 10% foetal bovine serum). 1 μL of DMSO control (final concentration 1.0% v/v) or test compound (final concentration 20, 5 or 1 μg/mL) is added to the wells and incubated at 37° C., 5% CO2. After 24 hours, the plate is centrifuged at 1200 rpm for 3 minutes and the supernatant discarded. Cells are then resuspended in 150 μL (final concentration 7.5 μg/mL) of propidium iodide (PI) in PBS and incubated at 37° C., 5% CO2 for 15 minutes. After 15 minutes, cells are analysed by flow cytometry (BD accuri) using the FL3 window. The % viability is calculated as the % of cells that are PI negative in the test wells normalised to the DMSO control.
For orientation: A flow cytometer gives signals particle by particle.

Data set [3] deals with TYK2 (Homo sapiens (Human), UniProt P29597). Nature of the data set: KINOMEscan enzyme binding assay (DiscoveRx), TYK2. The conditions noted are these: read-out: Dissociation Constant TYK2. As for the experimental part:
(§1) These assays may be conducted by DiscoveRx (formerly Ambit; San Diego, Calif.). The percentage inhibition produced by incubation with a test compound may be calculated relative to the non-inhibited control.

Data set [4] is described as follows: Solubility in fasted-state simulated colonic fluid (FaSSCoF). It is filed as physicochemical. The conditions noted are these: 25 °C, pH 6.5, fassgf or other biorelevant, thermodynamic from solid, pH 6.5, 25° C. As for the experimental part: The solubilities of compounds of the invention in FaSSCoF at pH 6.5 are determined using a modification of a previously-reported procedure (Vertzoni, M., et al. Pharm. Res. 2010, 27, 2187-2196). In place of the bile salt extract employed in the original procedure (which extract is no longer available), the modified procedure uses a mixture of sodium taurochlorate (0.15 g), glycocholic acid (0.15 g), ursodeoxycholic acid (0.05 g), cholic acid (0.05 g), and glycodeoxycholic acid (0.05 g). These five bile acids are ground together with a mortar and pestle to produce a fine white powder that is incorporated into the FaSSCoF, as outlined below.
FaSSCoF medium: Tris(hydroxymethyl)aminomethane (Tris; 0.275 g) and maleic acid (0.44 g) are dissolved in water (35 mL) to give a solution whose pH is adjusted to 6.5 by treatment with 0.5M NaOH (ca. 12 mL). The solution is then made up to 50 mL with water. A portion of this Tris/maleate buffer solution (ca. 25 mL) is added to a 0.5 L round-bottomed flask, before being treated with 0.00565 g of the bile acid mixture described above. Solutions of phosphatidylcholine (0.0111 g) in DCM (0.15 mL) and palmitic acid (0.0013 g) in DCM (0.15 mL) are added, then the organic solvent is evaporated off under reduced pressure at 40° C. until a clear solution, with no perceptible DCM odour, is achieved. The volume of the evaporated solution is adjusted to 50 mL by addition of the remainder of Tris/maleate buffer, then BSA (0.115 g) is added, before being dissolved by gentle agitation.
Solubility Determination: Test compounds are suspended in the pH 6.5 FaSSCoF medium to give a maximum final concentration of 2-10 mg/mL. The suspensions are equilibrated at 25° C. for 24 h, before being filtered through a glass fibre C filter. The filtrates are then diluted as appropriate for injection and quantification by HPLC with reference to a standard. Different volumes of the standard, diluted and undiluted sample solutions are injected and the solubilities are calculated using the peak areas determined by integration of the peak found at the same retention time as the principal peak in the standard injection.

Data set [5] addresses JAK2 (Homo sapiens (Human), UniProt O60674). Nature of the data set: KINOMEscan enzyme binding assay (DiscoveRx), JAK2. As to conditions: read-out: Dissociation Constant JAK2. As for the experimental part: as §1
Data set [6] addresses JAK1 (Homo sapiens (Human), UniProt P23458). Nature of the data set: KINOMEscan enzyme binding assay (DiscoveRx), JAK1. The conditions noted are these: read-out: Dissociation Constant JAK1. As for the experimental part: as §1
For data set [7], the target named is JAK3 (Homo sapiens (Human), UniProt P52333). Nature of the data set: KINOMEscan enzyme binding assay (DiscoveRx), JAK3. As to conditions: read-out: Dissociation Constant JAK3. As for the experimental part:
as §1

Chain of TYK2 (P29597 whole entry): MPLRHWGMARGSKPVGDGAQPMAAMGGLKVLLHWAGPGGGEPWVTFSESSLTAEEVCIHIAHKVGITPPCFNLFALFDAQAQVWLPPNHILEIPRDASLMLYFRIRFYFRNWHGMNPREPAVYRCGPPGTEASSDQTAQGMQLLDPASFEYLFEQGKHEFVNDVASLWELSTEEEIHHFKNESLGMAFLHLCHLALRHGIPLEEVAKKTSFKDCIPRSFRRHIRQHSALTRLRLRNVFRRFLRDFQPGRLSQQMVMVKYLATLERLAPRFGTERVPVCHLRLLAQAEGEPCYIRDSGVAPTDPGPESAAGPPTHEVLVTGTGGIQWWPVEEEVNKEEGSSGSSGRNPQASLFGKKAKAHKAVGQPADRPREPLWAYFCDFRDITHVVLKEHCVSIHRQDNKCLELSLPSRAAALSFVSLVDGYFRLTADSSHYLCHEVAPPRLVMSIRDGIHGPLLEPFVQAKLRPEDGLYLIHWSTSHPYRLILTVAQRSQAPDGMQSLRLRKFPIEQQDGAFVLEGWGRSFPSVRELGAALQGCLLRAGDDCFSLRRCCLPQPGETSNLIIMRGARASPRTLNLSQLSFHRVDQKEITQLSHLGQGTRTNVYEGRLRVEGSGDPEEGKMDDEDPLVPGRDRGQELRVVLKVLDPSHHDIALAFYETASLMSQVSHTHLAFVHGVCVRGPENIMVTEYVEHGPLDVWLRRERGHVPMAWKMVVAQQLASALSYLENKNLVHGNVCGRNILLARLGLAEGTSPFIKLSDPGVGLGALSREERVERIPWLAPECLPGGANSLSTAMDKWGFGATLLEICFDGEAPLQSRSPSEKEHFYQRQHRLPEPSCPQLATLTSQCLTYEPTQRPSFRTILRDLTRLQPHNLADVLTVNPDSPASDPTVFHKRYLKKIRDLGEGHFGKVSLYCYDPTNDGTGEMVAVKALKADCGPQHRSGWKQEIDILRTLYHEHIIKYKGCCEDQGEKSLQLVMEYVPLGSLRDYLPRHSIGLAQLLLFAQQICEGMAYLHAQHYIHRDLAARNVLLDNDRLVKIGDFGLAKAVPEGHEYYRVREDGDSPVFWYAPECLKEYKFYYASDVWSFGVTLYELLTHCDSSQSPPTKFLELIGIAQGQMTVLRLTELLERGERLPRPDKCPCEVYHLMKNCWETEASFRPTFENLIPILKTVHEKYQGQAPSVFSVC
Chain of JAK2 (O60674 whole entry): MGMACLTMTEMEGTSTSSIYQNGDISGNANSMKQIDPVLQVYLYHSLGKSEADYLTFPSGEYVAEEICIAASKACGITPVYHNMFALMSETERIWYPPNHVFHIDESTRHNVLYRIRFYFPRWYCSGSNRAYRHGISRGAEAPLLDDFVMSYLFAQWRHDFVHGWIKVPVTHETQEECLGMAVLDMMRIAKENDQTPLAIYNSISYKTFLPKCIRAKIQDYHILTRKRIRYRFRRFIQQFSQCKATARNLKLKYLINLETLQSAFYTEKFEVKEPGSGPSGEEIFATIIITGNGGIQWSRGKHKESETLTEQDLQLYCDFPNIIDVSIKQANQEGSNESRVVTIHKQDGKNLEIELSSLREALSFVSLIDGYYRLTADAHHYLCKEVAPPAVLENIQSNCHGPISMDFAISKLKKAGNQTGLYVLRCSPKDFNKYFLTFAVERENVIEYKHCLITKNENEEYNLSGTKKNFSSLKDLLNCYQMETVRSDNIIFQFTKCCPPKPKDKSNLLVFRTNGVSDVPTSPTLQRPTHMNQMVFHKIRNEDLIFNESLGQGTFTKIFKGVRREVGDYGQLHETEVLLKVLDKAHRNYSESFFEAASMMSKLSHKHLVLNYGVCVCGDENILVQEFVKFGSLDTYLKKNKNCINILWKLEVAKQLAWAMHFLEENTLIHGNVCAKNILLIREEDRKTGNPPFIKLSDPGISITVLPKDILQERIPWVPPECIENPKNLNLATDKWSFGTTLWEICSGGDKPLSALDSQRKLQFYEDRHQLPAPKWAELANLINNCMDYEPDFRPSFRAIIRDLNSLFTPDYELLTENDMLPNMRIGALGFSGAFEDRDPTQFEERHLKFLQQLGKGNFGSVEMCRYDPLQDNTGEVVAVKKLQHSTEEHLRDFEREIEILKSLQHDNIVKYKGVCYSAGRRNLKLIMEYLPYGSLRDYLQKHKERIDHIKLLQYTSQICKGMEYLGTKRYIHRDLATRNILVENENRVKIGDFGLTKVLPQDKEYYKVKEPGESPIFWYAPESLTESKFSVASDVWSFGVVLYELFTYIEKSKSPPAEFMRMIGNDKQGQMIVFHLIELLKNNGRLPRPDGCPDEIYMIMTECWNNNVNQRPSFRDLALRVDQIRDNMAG
Chain of JAK1 (P23458 whole entry): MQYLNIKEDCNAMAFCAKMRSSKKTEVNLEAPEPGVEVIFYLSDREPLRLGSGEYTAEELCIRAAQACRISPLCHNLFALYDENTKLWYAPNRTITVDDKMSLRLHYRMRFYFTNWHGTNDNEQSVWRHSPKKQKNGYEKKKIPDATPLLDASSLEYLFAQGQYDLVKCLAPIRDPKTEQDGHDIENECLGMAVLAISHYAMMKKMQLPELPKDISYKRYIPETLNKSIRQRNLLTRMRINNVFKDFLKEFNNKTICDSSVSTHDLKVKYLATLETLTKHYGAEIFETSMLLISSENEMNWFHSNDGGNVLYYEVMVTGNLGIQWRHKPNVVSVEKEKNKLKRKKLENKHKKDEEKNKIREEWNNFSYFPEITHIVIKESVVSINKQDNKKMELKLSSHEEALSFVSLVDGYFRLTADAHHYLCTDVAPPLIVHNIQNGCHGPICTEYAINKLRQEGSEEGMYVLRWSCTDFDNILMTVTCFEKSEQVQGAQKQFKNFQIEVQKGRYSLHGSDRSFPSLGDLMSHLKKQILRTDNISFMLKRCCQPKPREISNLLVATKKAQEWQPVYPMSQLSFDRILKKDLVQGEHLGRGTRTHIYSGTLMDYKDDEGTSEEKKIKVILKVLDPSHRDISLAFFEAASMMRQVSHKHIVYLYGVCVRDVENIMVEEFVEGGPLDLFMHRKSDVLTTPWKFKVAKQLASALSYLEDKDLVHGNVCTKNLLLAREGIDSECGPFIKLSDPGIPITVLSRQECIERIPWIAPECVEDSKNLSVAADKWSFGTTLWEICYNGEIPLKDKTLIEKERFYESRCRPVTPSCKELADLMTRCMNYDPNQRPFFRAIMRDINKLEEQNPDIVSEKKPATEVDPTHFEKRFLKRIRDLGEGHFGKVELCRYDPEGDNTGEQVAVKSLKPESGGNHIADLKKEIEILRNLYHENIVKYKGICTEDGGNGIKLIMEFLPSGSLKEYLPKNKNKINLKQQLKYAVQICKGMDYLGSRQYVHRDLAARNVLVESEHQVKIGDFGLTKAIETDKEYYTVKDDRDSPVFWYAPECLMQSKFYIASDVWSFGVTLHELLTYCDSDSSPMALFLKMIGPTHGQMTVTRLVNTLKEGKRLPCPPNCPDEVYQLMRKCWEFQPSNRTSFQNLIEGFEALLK
Chain of JAK3 (P52333 whole entry): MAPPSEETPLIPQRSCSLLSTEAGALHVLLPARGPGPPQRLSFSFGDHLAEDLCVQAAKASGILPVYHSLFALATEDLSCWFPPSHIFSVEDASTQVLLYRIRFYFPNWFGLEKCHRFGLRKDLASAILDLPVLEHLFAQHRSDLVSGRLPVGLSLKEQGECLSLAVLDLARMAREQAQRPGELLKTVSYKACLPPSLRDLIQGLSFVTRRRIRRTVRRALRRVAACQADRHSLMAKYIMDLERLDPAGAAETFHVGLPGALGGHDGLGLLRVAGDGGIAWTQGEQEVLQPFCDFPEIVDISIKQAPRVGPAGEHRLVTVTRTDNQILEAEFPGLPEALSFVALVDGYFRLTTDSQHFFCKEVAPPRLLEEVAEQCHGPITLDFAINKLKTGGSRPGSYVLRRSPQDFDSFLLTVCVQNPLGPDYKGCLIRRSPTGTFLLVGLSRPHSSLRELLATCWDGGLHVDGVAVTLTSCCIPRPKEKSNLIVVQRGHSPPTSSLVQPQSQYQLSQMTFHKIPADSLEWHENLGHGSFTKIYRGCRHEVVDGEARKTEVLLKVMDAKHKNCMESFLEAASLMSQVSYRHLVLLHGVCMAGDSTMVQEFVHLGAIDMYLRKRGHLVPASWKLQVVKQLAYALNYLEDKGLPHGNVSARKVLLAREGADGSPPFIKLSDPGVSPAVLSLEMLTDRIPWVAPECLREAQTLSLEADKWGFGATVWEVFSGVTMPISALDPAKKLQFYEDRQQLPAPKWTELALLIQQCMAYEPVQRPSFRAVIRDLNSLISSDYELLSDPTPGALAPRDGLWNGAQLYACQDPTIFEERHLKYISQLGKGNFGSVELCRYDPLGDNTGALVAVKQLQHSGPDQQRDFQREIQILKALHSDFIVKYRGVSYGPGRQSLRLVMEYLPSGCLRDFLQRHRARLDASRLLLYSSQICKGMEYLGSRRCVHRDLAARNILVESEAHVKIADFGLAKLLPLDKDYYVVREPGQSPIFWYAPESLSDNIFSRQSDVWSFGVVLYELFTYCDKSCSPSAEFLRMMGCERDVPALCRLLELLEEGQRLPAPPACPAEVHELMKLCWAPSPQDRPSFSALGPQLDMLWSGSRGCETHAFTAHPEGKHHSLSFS

As a reminder, the IC50 is the concentration that gives 50% inhibition. High values mean lower potency, low ones higher potency. In the case of `CCc1cc(O)c(F)cc1-c1ccc2c(-c3nc4c([nH]3)CCN(C(=O)Nc3cn(C)c(=O)n(C)c3=O)C4)n[nH]c2c1` [Example 4(d), N-(1,3-dimethyl-2,4-dioxo-1,2,3,4-tetrahydropyrimidin-5-yl)-2-(6-(2-ethyl-5-fluoro-4-hydroxyphenyl)-1H-indazol-3-yl)-6,7-dihydro-1H-imidazo[4,5-c]pyridine-5(4H)-carboxamide], the IC50 in data set [1] turned out to be 19.2 nM. Further, the “% viability at 1 μg/mL” value in data set [2] is 60%.

Compound `CCc1cc(O)c(F)cc1-c1ccc2c(-c3nc4c([nH]3)CCN(S(=O)(=O)N3CCN(C)CC3)C4)n[nH]c2c1` [Example 6(f), 5-ethyl-2-fluoro-4-(3-(5-((4-methylpiperazin-1-yl)sulfonyl)-4,5,6,7-tetrahydro-1H-imidazo[4,5-c]pyridin-2-yl)-1H-indazol-6-yl)phenol] gave an IC50 in data set [1] of 9 nM. Further, the “% viability at 1 μg/mL” value in data set [2] worked out at 29%.

As to `CCc1cc(O)c(F)cc1-c1ccc2c(-c3nc4c([nH]3)CCN(S(=O)(=O)N(CCC#N)CCOC)C4)n[nH]c2c1` [Example 6(a), N-(2-cyanoethyl)-2-(6-(2-ethyl-5-fluoro-4-hydroxyphenyl)-1H-indazol-3-yl)-N-(2-methoxyethyl)-6,7-dihydro-1H-imidazo[4,5-c]pyridine-5(4H)-sulfonamide], the IC50 in data set [1] was 9.5 nM. The “% viability at 1 μg/mL” value in data set [2] is 79%.

Regarding `CCc1cc(O)c(F)cc1-c1ccc2c(-c3nc4c([nH]3)CCN(C(=O)N3CCC(N5CCCCC5)CC3)C4)n[nH]c2c1` [Example 2(a), [1,4′-bipiperidin]-1′-yl(2-(6-(2-ethyl-5-fluoro-4-hydroxyphenyl)-1H-indazol-3-yl)-1,4,6,7-tetrahydro-5H-imidazo[4,5-c]pyridin-5-yl)methanone], the Kd stood at 0.069 nM in data set [3], 0.034 nM in data set [5], 0.6 nM in data set [6] and 0.046 nM in data set [7]. Further, the solubility thermodynamic at 24 h is 30 µg/mL (≈ 52.5 µM) in data set [4] (Run 1, read-out: pH 6.5 FaSSCoF Solubility, Run 1) and 30 µg/mL (≈ 52.5 µM) in data set [4] (Run 2, read-out: pH 6.5 FaSSCoF Solubility, Run 2). For the same compound, it took 48.4 nM to reach half-maximal inhibition in data set [1] (IC50). Besides, in data set [2], the “% viability at 1 μg/mL” value worked out at 59%.

In turn, `CCc1cc(O)c(F)cc1-c1ccc2c(-c3nc4c([nH]3)CCN(S(=O)(=O)N3CCCC3)C4)n[nH]c2c1` [Example 6(d), 5-ethyl-2-fluoro-4-(3-(5-(pyrrolidin-1-ylsulfonyl)-4,5,6,7-tetrahydro-1H-imidazo[4,5-c]pyridin-2-yl)-1H-indazol-6-yl)phenol] gave an IC50 in data set [1] of 8.3 nM. The “% viability at 1 μg/mL” value in data set [2] worked out at 74%.

Take `CCc1cc(O)c(F)cc1-c1ccc2c(-c3nc4c([nH]3)CCN(S(=O)(=O)N3CCN(S(C)(=O)=O)CC3)C4)n[nH]c2c1` [Example 5]: inhibition in data set [1] was half-maximal at 17.8 nM (IC50). Besides, in data set [2], the “% viability at 1 μg/mL” value stood at 87%.

Compound `CCc1cc(O)c(F)cc1-c1ccc2c(-c3nc4c([nH]3)CCN(C(=O)N3CCN(CC)C(=O)C3=O)C4)n[nH]c2c1` [Example 2(c), 1-ethyl-4-(2-(6-(2-ethyl-5-fluoro-4-hydroxyphenyl)-1H-indazol-3-yl)-4,5,6,7-tetrahydro-1H-imidazo[4,5-c]pyridine-5-carbonyl)piperazine-2,3-dione] returned an IC50 in data set [1] of 129 nM. Further, in data set [2], the “% viability at 1 μg/mL” value was determined as 99%.

In data set [1], `CCc1cc(O)c(F)cc1-c1ccc2c(-c3nc4c([nH]3)CCN(S(=O)(=O)N3CCOCC3)C4)n[nH]c2c1` [Example 6(e), 5-ethyl-2-fluoro-4-(3-(5-(morpholinosulfonyl)-4,5,6,7-tetrahydro-1H-imidazo[4,5-c]pyridin-2-yl)-1H-indazol-6-yl)phenol] came in with an IC50 of 4.7 nM. Further, the “% viability at 1 μg/mL” value in data set [2] was 64%.
